Data reported in patent US20040209799A1, “JAK/STAT pathway inhibitors and the uses thereof” (priority 2000, published 2004).

Columns and labels:
[1] = tested on: stromelysin-1 (MMP3) mRNA; test: northern blot, IL-1β-induced mRNA in human articular chondrocytes: stromelysin-1; format: cell-based; conditions: 5 μM, 2 ng/ml rhIL-1β, 24 hours, free base or trifluoroacetic acid salt form
Method: (§1) Frozen human articular chondrocyte cell strain HC30-0198 (described in Example 1) was thawed, and cultured in monolayer in T150 tissue culture flasks (Corning Costar, Cambridge, Mass.) as described above to 1-5 days post-confluence. Test cultures were rinsed in PBS, and preincubated for 2 hours with 10 ml of serum-free DMEM containing 5 μM DBH (synthetic), in its free base or trifluoroacetic acid salt form. An additional 10 ml of serum-free DMEM containing 5 μM DBH, 4 ng/ml recombinant human interleukin-1β (rhIL-1β; final concentration of 2 ng/ml) (R&D Systems, Minneapolis, Minn.), and 2% antibiotic solution (final concentration of 1%), were then added for 24 hours.
(§2) Two control cultures were run in parallel: one without DBH (rhIL-1β alone), and another without DBH or rhIL-1β.
(§3) Total RNA was fixed to the membrane using a Stratalinker® 1800 UV Crosslinker (Stratagene, La Jolla, Calif.). […]
(§4) The blot was successively washed two times in 2×SSC/0.05% SDS (15 min/wash at room temperature), and two times in 0.1×SSC/0.1% SDS (30 minutes/wash at 65° C.). The blot was allowed to air dry, and the radioactive signal was visualized and quantified using a Fujifilm, BAS-1500 phosphorimager (Fuji, Stamford, Conn.). […]

[2] = tested on: collagenase 1 (MMP1) mRNA; test: northern blot, IL-1β-induced mRNA in human articular chondrocytes: collagenase 1; format: cell-based; conditions: 5 μM, 2 ng/ml rhIL-1β, 24 hours, free base or trifluoroacetic acid salt form
Method: as §1, §2, §3, §4

NF-κB (p65) mRNA = test: northern blot, IL-1β-induced mRNA in human articular chondrocytes: NF-κB; format: cell-based; conditions: 5 μM, 2 ng/ml rhIL-1β, 24 hours, free base or trifluoroacetic acid salt form
Method: as §1, §2, §3, §4

[3] = tested on: chondrocytes in culture and explants of articular cartilage; conditions: cited from earlier work
[4] = tested on: rhIL-1β-induced mRNAs in human articular chondrocytes; test: northern blot, rhIL-1β-induced mRNAs, comparison of DBH forms (some mRNAs, not named); format: cell-based; conditions: 5 μM, for some mRNAs
Method: as §1, §2, §3, §4

[5] = tested on: IL-1α-induced aggrecanase activity in bovine chondrocytes; test: IL-1α-induced 35S-labeled proteoglycan release (aggrecanase activity) in bovine chondrocytes; format: cell-based; conditions: Bos taurus, Chondrocyte, 1 ng/ml rhIL-1α, primary bovine articular chondrocytes
Method: Primary bovine articular chondrocytes were isolated from the dissected articular cartilage of calf stifle joints using a thirty minute (37° C.) 1 mg/ml hyaluronidase (Boehringer Mannheim, Indianapolis, Ind.) treatment, followed by a thirty minute (37° C.) 2 mg/ml collagenase P (Boehringer Mannheim, Indianapolis, Ind.) and 2.5 mg/ml trypsin (GIBCO/BRL, Gaithersburg, Md.) treatment. Enzyme solutions were prepared in serum-free 1:1 Delbecco's modified essential medium/Ham's F-12 (DMEM/F12), and filter sterilized with a 0.22 μm Millex®-GV filter (Millipore S. A., Molsheim, France). A third, overnight digestion (0.5 mg/ml collagenase P at 37° C.) was performed in a Bellco stir flask.
Bovine chondrocytes were recovered by addition of an equal volume of DMEM/F12 supplemented with 10% fetal bovine serum (FBS) to neutralize enzymes, filtered through a 70 μm nylon Falcon® Cell Strainer (Beckton Dickinson, Franklin Lakes, N.J.), and centrifuged at 1000×g for 10 min at room temperature. […]
On day 28, the 0.5 ml media was removed and placed in a scintillation minivial. 4 ml of scintillation fluid was added and radioactivity in the media was quantified by scintillation counting. The cell layer was rinsed in PBS and harvested with 0.5 ml of 1× trypsin-EDTA, and quantified by scintillation counting as above. […]
Data were determined and expressed as follows: […]

inhibition of IL-1β-induced upregulation of collagenase 1 (MMP1) mRNA [2]	Compound	inhibition of IL-1β-induced upregulation of stromelysin (MMP3) mRNA [1]	inhibition of IL-1β-induced upregulation of NF-κB (p65) mRNA (NF-κB (p65) mRNA)	inhibition of IL-1 induced degradation of glycosaminoglycan and extracellular matrix [3]	inhibition of rhIL-1β-induced mRNAs, compared with the trifluoroacetic acid salt form [4]	inhibition at 5 µM [5]
inhibit to various degrees	NC1=NC(=O)C(=C2CCNC(=O)c3[nH]ccc32)N1 [DBH, 4-(2-amino-4-oxo-2-imidazolin-5-ylidene)-4,5,6,7-tetrahydropyrrolo(2,3-c) azepine-8-one]	inhibit to various degrees	inhibit to various degrees	inhibit		
	NC1=NC(=O)C(=C2CCNC(=O)c3[nH]ccc32)N1 [DBH-2FB]				to a greater extent than the trifluoroacetic acid salt form of DBH	100%
